15 compounds from patent US4129565A, “Isocarbostyril derivatives” (priority 1975, dated 1978) can be followed below.

In data set [1] the target is T1, isolated guinea-pig atria (β1) (Cavia porcellus, UniProt H0W3H1).
T1 construct: isolated guinea-pig atria; from tissue; host or cells: isolated guinea-pig atria
The data set can be described thus: β-adrenergic blocking effect: antagonism of isoproterenol stimulation in isolated guinea-pig atria.

Data set [2] concerns the target T2, isolated guinea-pig tracheas (β2) (Cavia porcellus, UniProt Q8K4Z4).
T2 construct: isolated guinea-pig tracheas; from tissue; host or cells: isolated guinea-pig tracheas
The data set can be described thus: β-adrenergic blocking effect: antagonism of isoproterenol stimulation in isolated guinea-pig tracheas.

For data set [3], the system named is reserpine-treated anaesthetized rats. Nature of the data set: Intrinsic heart stimulating effect in reserpine-treated anaesthetized rats. Format: in vivo, rat. The procedure: Intrinsic heart stimulating effects of the compounds of the invention were also determined using reserpine-treated anaesthetized rats.
A further data set in a line: in vivo. The following applies: mouse, iv. The procedure:
With respect to acute toxicity of the isocarbostyril derivatives of the general formula (I), experiments were carried out to obtain the LD50 values of the compounds.

By LD50 is commonly meant the dose expected to kill half of the subjects tested.

The structures appear in SMILES notation. Where a name gives a salt, the structure may show the parent alone. Some results are limits rather than exact numbers.

T1 sequence (H0W3H1 1-470): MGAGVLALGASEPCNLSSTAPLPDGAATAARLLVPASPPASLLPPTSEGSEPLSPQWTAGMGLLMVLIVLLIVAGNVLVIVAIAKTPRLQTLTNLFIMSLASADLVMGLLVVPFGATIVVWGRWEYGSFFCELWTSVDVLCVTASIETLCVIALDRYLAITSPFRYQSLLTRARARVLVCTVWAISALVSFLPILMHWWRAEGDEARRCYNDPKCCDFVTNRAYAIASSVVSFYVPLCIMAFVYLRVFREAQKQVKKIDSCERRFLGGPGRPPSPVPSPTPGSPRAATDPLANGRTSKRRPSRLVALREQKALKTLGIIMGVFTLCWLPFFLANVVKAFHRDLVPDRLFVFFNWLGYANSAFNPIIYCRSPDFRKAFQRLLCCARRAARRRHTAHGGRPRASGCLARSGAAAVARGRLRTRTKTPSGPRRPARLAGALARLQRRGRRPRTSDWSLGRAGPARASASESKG
T2 sequence (Q8K4Z4 whole entry): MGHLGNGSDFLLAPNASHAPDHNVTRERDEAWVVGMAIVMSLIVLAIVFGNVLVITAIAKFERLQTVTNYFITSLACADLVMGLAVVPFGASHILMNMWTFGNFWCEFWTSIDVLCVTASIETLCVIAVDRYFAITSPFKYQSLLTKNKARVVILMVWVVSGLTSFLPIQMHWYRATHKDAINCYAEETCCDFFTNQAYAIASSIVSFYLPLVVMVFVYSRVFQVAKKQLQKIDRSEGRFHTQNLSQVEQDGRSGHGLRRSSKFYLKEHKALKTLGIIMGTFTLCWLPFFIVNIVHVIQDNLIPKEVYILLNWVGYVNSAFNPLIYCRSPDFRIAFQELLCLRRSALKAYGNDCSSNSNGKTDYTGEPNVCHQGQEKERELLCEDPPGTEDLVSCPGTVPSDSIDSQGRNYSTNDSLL

Take `Cn1cc(OCC(O)CNC(C)(C)C)c2ccccc2c1=O` (stereo not drawn) [Example 2, 4-(3-tert.-butylamino-2-hydroxy)propoxy-2-methylisocarbostyril hydrochloride]: the “β-adrenergic blocking activity (Relative potency) atria (β1)” value in data set [1] turned out to be 2.5. Besides, the “β-adrenergic blocking activity (Relative potency) trachea (β2)” value in data set [2] is 0.52. The compound further gave an Intrinsic heart stimulation in data set [3] of 0. Besides, in the data set “in vivo”, the LD50 is 119 mg/kg.

Take `CC(C)NCC(O)COc1cn(C)c(=O)c2ccccc12` (stereo not drawn) [Example 1, 4-(3-isopropylamino-2-hydroxy)propoxy-2-methylisocarbostyrilhydrochloride]: in data set [1], the “β-adrenergic blocking activity (Relative potency) atria (β1)” value is on record as 3.2. In data set [2], the “β-adrenergic blocking activity (Relative potency) trachea (β2)” value is 0.44. The compound also registered an Intrinsic heart stimulation in data set [3] of 0. In the data set “in vivo”, the LD50 was 105 mg/kg.

As to `Cn1cc(OCC(O)CN2CCCCC2)c2ccccc2c1=O` (stereo not drawn) [Example 9, 4-(3-piperidino-2-hydroxy)propoxy-2-methylisocarbostyril hydrochloride], in “in vivo”, the LD50 turned out to be 200 mg/kg.

`Cn1cc(OCC(O)CNC2CCCCC2)c2ccccc2c1=O` (stereo not drawn) [Example 8, 4-(3-cyclohexylamino-2-hydroxy)propoxy-2-methylisocarbostyril hydrochlorid] registered an LD50 in the data set “in vivo” of 80 mg/kg.

`CN1CCN(CC(O)COc2cn(C)c(=O)c3ccccc23)CC1` (stereo not drawn) [Example 12, 4-(3-N-methylpiperazino-2-hydroxy) propoxy-2-methyl isocarbostyril] displayed an LD50 in the data set “in vivo” of 270 mg/kg.

As to `CC[N+](C)(CC)CC(O)COc1cn(C)c(=O)c2ccccc12` (stereo not drawn) [Example 13, 4-(3-diethylamino-2-hydroxy)propoxy-2-methyl isocarbostyril methoiodide], in the data set “in vivo”, the LD50 stood at 15.2 mg/kg.

In the case of `CCC(C)NCC(O)COc1cn(C)c(=O)c2ccccc12` (stereo not drawn) [Example 3, 4-(3-sec.-butylamino-2-hydroxy)propoxy-2-methyl isocarbostyril hydrochloride], in data set [1], the “β-adrenergic blocking activity (Relative potency) atria (β1)” value is 4.5. In addition, in data set [2], the “β-adrenergic blocking activity (Relative potency) trachea (β2)” value came out at 0.05. In addition, the Intrinsic heart stimulation in data set [3] was 0. This compound had an LD50 in the data set “in vivo” of 120 mg/kg.

For the compound `CCCNCC(O)COc1cn(C)c(=O)c2ccccc12` (stereo not drawn) [R3=H, R4=n-C3 H7], the LD50 in the data set “in vivo” stood at 115 mg/kg.

`CC[N+](C)(C)CC(O)COc1cn(C)c(=O)c2ccccc12` (stereo not drawn) [Example 15, 4-(3-dimethylamino-2-hydroxy)propoxy-2-methyl isocarbostyril ethoiodide] came in with an LD50 in the data set “in vivo” of 16.7 mg/kg.

`CCCCCCNCC(O)COc1cn(C)c(=O)c2ccccc12` (stereo not drawn) [R3=H, R4=n-C6 H13] registered an LD50 in “in vivo” of 69 mg/kg.

In turn, `CCCCNCC(O)COc1cn(C)c(=O)c2ccccc12` (stereo not drawn) [R3=H, R4=n-C4 H9] displayed an LD50 in “in vivo” of 105 mg/kg. Compared with the last compound, the LD50 is about 1.5-fold higher.

Regarding `CC(C)NCC(O)COc1cccc2ccccc12` (stereo not drawn) [Propranolol, propranolol, reference compound], in data set [3], the Intrinsic heart stimulation is 0.

As for `CC(C)[N+](C)(C)CC(O)COc1cn(C)c(=O)c2ccccc12` (stereo not drawn) [Example 14], in the data set “in vivo”, the LD50 was < 20 mg/kg.

Consider `Cn1cc(OCC(O)CNCc2ccccc2)c2ccccc2c1=O` (stereo not drawn) [Example 7, 4-(3-benzylamino-2-hydroxy)propoxy-2-methylisocarbostyril hydrochloride], for which the LD50 in the data set “in vivo” is 120 mg/kg.

Compound `CCCCN(C)CC(O)COc1cn(C)c(=O)c2ccccc12` (stereo not drawn) [Example 11, 4-(3-N-methyl-butylamino-2-hydroxy) propoxy-2-methyl isocarbostyril] had an LD50 in the data set “in vivo” of 143 mg/kg.
